Measured values published in patent US20230338316A1, “ABBAPOLINS AS INHIBITORS AND DEGRADERS OF POLO-LIKE KINASES” (UNIVERSITY OF SOUTH CAROLINA, priority 2022, published 2023).

Columns and labels:
PLK1 PBD (367-603) = biological target: T1, PLK1 PBD (367-603) (Homo sapiens, UniProt P53350); assay: Fluorescence polarization assay, PLK1 PBD; assay type: binding; details: for IC50: fluorescence polarization, read-out: PLK1 PBD IC50
T1 construct: PLK1 PBD (367-603) and PLK3 PBD (335-646) proteins were obtained from BPS Biosciences Inc; purchased BPS Biosciences Inc. (San Diego, CA)
Protocol: (§1) Materials were dissolved in DMSO (10 mM) and diluted from 10 nM to 600 μM (maximum of 6% DMSO tolerance in the assay). PLK1 PBD (367-603) and PLK3 PBD (335-646) proteins were obtained from BPS Biosciences Inc. (San Diego, CA); 17 ng PLK1 and 156 ng PLK3 were used per reaction. The fluorescein-tracer phospho-peptides (MAGPMQS[pT]PLNGAKK (SEQ ID NO: 1) for PLK1, and GPLATS[pT]PKNG (SEQ ID NO: 2) for PLK3) were used at a final concentration of 10 nM. Incubation was carried out at room temperature for 45 minutes. Fluorescence was measured using a DTX 880 plate reader and Multimode Analysis software (Beckman Coulter, Brea, CA). The polarization values in millipolarization (mP) units were measured at an excitation wavelength of 488 nm and an emission wavelength of 535 nm. Each data point was performed in triplicate for every experiment, and experiments were performed at least three times. An IC50 value for each compound was calculated from linear regression analysis of the plots.

[1] = test system: PC3 prostate cancer cells; assay: MTT cell viability assay, PC3; assay type: cell-based; details: MTT
Protocol: PC3 prostate cancer cells were maintained in DMEM (Invitrogen™, Carlsebad, CA) supplemented with 10% FBS or Corning® Nu-serum™(BD™ Biosciences, Franklin Lakes, NJ) and 1% penicillin/streptomycin (Invitrogen™) in a humidified incubator and 5% CO2 at 37° C.
Exponentially growing cells were plated in 96-well dishes. Dose response curves were used to treat cells for 72 hours with inhibitors. Following the three-day treatment, cell viability was measured using the MTT (3-(4,5-dimethylthiazol-2-yl)-2,5-diphenyltetrazolium bromide) colorimetric assay. Cells were incubated for 3 hours with MTT allowing viable cells to metabolize the tetrazolium dye to a purple colored solution. Absorbance measurements (595 nm) were quantified using a DTX 880 plate reader and IC50 values were generated for FLIPs.

PLK3 PBD (335-646) = biological target: T2, PLK3 PBD (335-646) (Homo sapiens, UniProt Q9H4B4); assay: Fluorescence polarization assay, PLK3 PBD; assay type: binding
T2 construct: PLK1 PBD (367-603) and PLK3 PBD (335-646) proteins were obtained from BPS Biosciences Inc; purchased BPS Biosciences Inc. (San Diego, CA)
T2 sequence (Q9H4B4 335-646): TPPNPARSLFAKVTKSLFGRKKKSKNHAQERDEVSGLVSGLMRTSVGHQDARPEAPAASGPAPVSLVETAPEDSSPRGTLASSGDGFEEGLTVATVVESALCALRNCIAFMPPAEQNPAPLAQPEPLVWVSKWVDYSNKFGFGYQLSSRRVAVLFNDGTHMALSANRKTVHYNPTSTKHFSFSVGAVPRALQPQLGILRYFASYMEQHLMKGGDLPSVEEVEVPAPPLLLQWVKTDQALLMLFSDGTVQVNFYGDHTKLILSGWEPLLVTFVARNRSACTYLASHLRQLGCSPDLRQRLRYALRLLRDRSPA
Protocol: as §1

T1 sequence (P53350 367-603): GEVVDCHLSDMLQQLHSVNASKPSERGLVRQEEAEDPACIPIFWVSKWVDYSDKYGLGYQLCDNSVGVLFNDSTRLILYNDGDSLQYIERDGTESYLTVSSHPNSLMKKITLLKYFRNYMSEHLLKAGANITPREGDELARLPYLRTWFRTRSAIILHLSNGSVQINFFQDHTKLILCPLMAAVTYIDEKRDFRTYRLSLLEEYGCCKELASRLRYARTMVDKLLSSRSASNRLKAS

| IC50 (PLK1 PBD (367-603)) [µM] | IC50 ([1]; 72 h) [µM] | IC50 ([1]; 72 hours) [µM] | IC50 (PLK3 PBD (335-646)) [µM] | PLK1 PBD % inhi. (PLK1 PBD (367-603); at 400 μM) [% inhi. at] | SMILES |
| --- | --- | --- | --- | --- | --- |
| 53 | 26.6 | 25.1 |  |  | CCCCCCCCc1ccc(C(=O)Nc2ccccc2P(=O)(O)O)cc1 [compound 6286] |
| > 600 | > 120 |  | > 600 |  | Cc1ccc(NC(=O)c2ccc(N)cc2)c(C(=O)O)c1 [compound 6153] |
|  |  |  |  | 37 | CCCCCCNC(=O)c1ccc(C(=O)Nc2ccc(C)cc2C(=O)O)cc1 [compound 6189] |
| > 100 | 25.9 | 18.3 | > 200 |  | CCCCCCCCc1ccc(C(=O)Nc2ccc(C)cc2C(=O)O)cc1OC [compound 6280] |
| > 600 | > 120 |  |  |  | Cc1ccc(C(=O)O)c(NC(=O)c2ccc(N)cc2)c1 [compound 6154] |
| 19.5 |  |  |  |  | CCCCCCCCc1cccc(C(=O)Nc2ccc(C)cc2C(=O)O)c1 [compound 6281] |
| 21 |  |  |  |  | CCCCCCCCc1ccc(C(=O)Nc2ccc(C)cc2C(=O)O)cc1C [compound 6282] |
| 51.5 | 20.4 ± 4.4 |  |  |  | CCCCCCCCc1ccc(C(=O)Nc2cccc(CP(=O)(O)O)c2)cc1 [compound 6195] |
